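Method: 48-hour compound exposure of cells in 96-well plates, five concentrations, linear interpolation of endpoints. GI50 marks 50% less growth.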 Active and inactive are the calls of the source. No stated cut-off is given here; in the data, active = GI50 up to about 1.1 µM and inactive = higher.
Key:
Experiment in all cases: DTP human tumour cell line panel, 48 h
786-0 = test system: 786-0
COLO 205 = test system: COLO 205
DU-145 = test system: DU-145
HCT-15 = test system: HCT-15
HL-60 = test system: HL-60
HT-29 = test system: HT-29
Hs-578T = test system: Hs-578T
Malme-3M = test system: Malme-3M
NCI-H226 = test system: NCI-H226
NCI/ADR-RES = test system: NCI/ADR-RES
RXF 393 = test system: RXF 393
SF-295 = test system: SF-295
SF-539 = test system: SF-539
SK-MEL-2 = test system: SK-MEL-2
SK-OV-3 = test system: SK-OV-3
SNB-19 = test system: SNB-19
SR = test system: SR
SW-620 = test system: SW-620
UO-31 = test system: UO-31

Structure (SMILES) | GI50 (786-0) | GI50 (COLO 205) | GI50 (DU-145) | GI50 (HCT-15) | GI50 (HL-60) | GI50 (HT-29) | GI50 (Hs-578T) | GI50 (Malme-3M) | GI50 (NCI-H226) | GI50 (NCI/ADR-RES) | GI50 (RXF 393) | GI50 (SF-295) | GI50 (SF-539) | GI50 (SK-MEL-2) | GI50 (SK-OV-3) | GI50 (SNB-19) | GI50 (SR) | GI50 (SW-620) | GI50 (UO-31)
COC(=O)c1ccccc1C1CN=NC12Cc1c(C)cccc1C2=O (centres undefined) | > 100 µM (inactive) | > 100 µM (inactive) | > 100 µM (inactive) | > 100 µM | 87.3 µM (inactive) | > 100 µM (inactive) | > 100 µM (inactive) | > 100 µM (inactive) | > 100 µM (inactive) | 60.8 µM (inactive) | > 100 µM (inactive) | 79.4 µM (inactive) | > 100 µM (inactive) | 48.3 µM (inactive) | > 100 µM (inactive) | > 100 µM (inactive) | > 100 µM (inactive) | > 100 µM (inactive) | 73.1 µM (inactive)
Cc1ccc(/C=N/Nc2ccccn2)s1 | > 54.7 µM (inactive) | > 100 µM (inactive) | > 100 µM (inactive) | > 72.6 µM | > 76.7 µM (inactive) | > 67.8 µM (inactive) | > 100 µM (inactive) | > 100 µM (inactive) | > 56.5 µM (inactive) | > 40.6 µM (inactive) | > 100 µM (inactive) | > 100 µM (inactive) | > 100 µM (inactive) | > 100 µM (inactive) | > 100 µM (inactive) | > 100 µM (inactive) | > 100 µM (inactive) | > 100 µM (inactive) | 97.7 µM (inactive)
C[C@]12CC[C@H](O)C=C1CC[C@@H]1[C@@H]2CC[C@]2(C)C(=N/O)/C(=C/c3ccncc3)C[C@@H]12 | 12.9 µM (inactive) | 11.7 µM (inactive) | 6.34 µM (inactive) | 5.19 µM | < 0.01 µM (active) | 4.04 µM (inactive) | 19.4 µM (inactive) | 17.5 µM (inactive) | 10.2 µM (inactive) | 17.5 µM (inactive) | 5.87 µM (inactive) | 12.2 µM (inactive) | 5.53 µM (inactive) | 10.3 µM (inactive) | 15.6 µM (inactive) | 11.9 µM (inactive) | 3.4 µM (inactive) | 23 µM (inactive) | 3.68 µM (inactive)
Cc1c(Cl)cc(C(C)(C)C)c(O)c1Cc1c(C)c(Cl)cc(C(C)(C)C)c1O | 1.73 µM (inactive) | 1.12 µM (active) | 1.96 µM (inactive) | 2.21 µM | 1.17 µM (inactive) | 1.54 µM (inactive) | 0.635 µM (active) | 0.406 µM (active) | 2.22 µM (inactive) | 2.14 µM (inactive) | 0.9 µM (active) | 2.07 µM (inactive) | 1.97 µM (inactive) | 1.73 µM (inactive) | 2.98 µM (inactive) | 1.8 µM (inactive) | 2.18 µM (inactive) | 1.81 µM (inactive) | 1.82 µM (inactive)
Nc1nc(-c2ccc3ccccc3c2)cc(-c2cc(-c3ccc4ccccc4c3)nc(N)n2)n1 | > 100 µM (inactive) | > 100 µM (inactive) | > 100 µM (inactive) | > 100 µM | > 100 µM (inactive) | > 100 µM (inactive) | > 100 µM (inactive) | > 100 µM (inactive) | > 100 µM (inactive) | > 100 µM (inactive) | > 100 µM (inactive) | > 100 µM (inactive) | > 100 µM (inactive) | > 100 µM (inactive) | > 100 µM (inactive) | > 100 µM (inactive) | > 100 µM (inactive) | > 100 µM (inactive) | > 100 µM (inactive)
CCCCCCCCOCC1S(=O)(=O)OCCOS1(=O)=O | > 100 µM (inactive) | > 100 µM (inactive) | > 100 µM (inactive) | > 100 µM | > 100 µM (inactive) | > 100 µM (inactive) | > 100 µM (inactive) | > 100 µM (inactive) | > 100 µM (inactive) | > 100 µM (inactive) | > 100 µM (inactive) | > 100 µM (inactive) | > 100 µM (inactive) | > 100 µM (inactive) | > 100 µM (inactive) | > 100 µM (inactive) | 40.4 µM (inactive) | > 100 µM (inactive) | > 100 µM (inactive)
